Values belong to the compound of their own block, whether it stands above or below them.
Experiments:
Assay type in all cases: physicochemical
[1] = Viscosity in aqueous solution at 20° C.
Protocol: Table 2 also gives calculated value for viscosity in mPas for concentration of 400 mg I/ml and 300 mg I/ml (at 20° C.).

Water solubility = conditions: noted in Table 2 in place of a concentration
Viscosity at 37° C. = experiment: Viscosity at 37° C.

SMILES: CC(O)C(=O)Nc1c(I)c(CO)c(I)c(N(CC(O)CO)C(=O)C(C)O)c1I (stereo not shown) [Example 11, N,N'-Bis(2-hydroxypropionyl)-N-(2,3-dihydroxypropyl)-3,5-diamino-2,4,6-triiodobenzylalcohol]
- Viscosity 20° C. ([1]; 407 mgI/ml): 16 mPas

SMILES: O=C(Nc1c(I)c(CO)c(I)c(N(CC(O)CO)C(=O)C(O)CO)c1I)C(O)CO (stereo not shown) [Example 15, N,N'-Bis(2,3-dihydroxypropionyl)-N-(2,3-dihydroxyoronyl)-3,5-diamino-2,4,6-triiodobenzylalcohol]
- Viscosity 20° C. ([1]; 348 mgI/ml): 7.8 mPas
- Viscosity 20° C. ([1]; 446 mgI/ml): 22 mPas
- Viscosity 20° C. ([1]; 537 mgI/ml): 75 mPas

SMILES: CN(CC(O)CO)C(=O)c1c(I)c(CO)c(I)c(NC(=O)CO)c1I (stereo not shown) [Example 44, 5-Hydroxyacetamido-3-hydroxymethyl-N-methyl-N-(2,3-dihydroxypropyl)-2,4,6-triiodobenzamide]
- Viscosity at 400 mgI/ml (CALCULATED) ([1]; 400 mgI/ml, calculated): 10.8 mPas
- Viscosity 20° C. ([1]; 481 mgI/ml): 24 mPas

SMILES: OCc1cc(OCC(O)CO)c(I)c(OCC(O)CO)c1I (stereo not shown) [Example 78, 3,5-Bis-(2,3-dihydroxypropyloxy)-2,4-diiodobenzyl alcohol]
- solubility (Water solubility): low

The remaining lines, values ahead:

- Viscosity at 350 mgI/ml (CALCULATED) (Viscosity at 37° C.): 5.9
- Viscosity 37° C. (Viscosity at 37° C.; 379 mgI/ml): 6.9
SMILES: O=C(Nc1c(I)c(CO)c(I)c(NC(=O)C(O)C(O)CO)c1I)C(O)C(O)CO (stereo not shown) [Example 79, N,N'-Bis-(2,3,4-trihydroxybutanoyl)-3,5-diamino-2,4,6-triiodobenzyl alcohol]

- Viscosity at 350 mgI/ml (CALCULATED) (Viscosity at 37° C.): 5.2
- Viscosity 37° C. (Viscosity at 37° C.; 444 mgI/ml): 11
SMILES: O=C(NCC(O)CO)c1c(I)c(CO)c(I)c(NC(=O)C(O)C(O)CO)c1I (stereo not shown) [Example 80, 5-[N'-(2,3,4-Trihydroxybutanoyl)amino]-3-hydroxymethyl-N-(2,3-dihydroxypropyl)-2,4,6-triiodobenzamide]

- Viscosity at 350 mgI/ml (CALCULATED) (Viscosity at 37° C.): 6.1
- Viscosity 37° C. (Viscosity at 37° C.; 376 mgI/ml): 8.9
SMILES: O=C(NC(CO)C(O)CO)c1c(I)c(CO)c(I)c(NC(=O)C(O)C(O)CO)c1I (stereo not shown) [Example 81, 5-[N'-(2,3,4-Trihydroxybutanoyl)-amino]-3-hydroxymethyl-N-(1,3,4-trihydroxybut-2-yl)-2,4,6-triiodobenzamide]
